Paper PMC4301629 (PLoS ONE, 2015)

Tests used:
α1A-AR [1] = molecular target: T1, α1A-AR (Homo sapiens, UniProt P35348); experiment: Ca2+ transient response (FLIPR, fluo3) in α1A-AR transduced HEK-293/EBNA cells; assay type: cell-based; design: expressed in transfected cells; host or cells: HEK-293/EBNA (baculovirus transduction, NaBu induction)
T1 sequence (P35348 1-466): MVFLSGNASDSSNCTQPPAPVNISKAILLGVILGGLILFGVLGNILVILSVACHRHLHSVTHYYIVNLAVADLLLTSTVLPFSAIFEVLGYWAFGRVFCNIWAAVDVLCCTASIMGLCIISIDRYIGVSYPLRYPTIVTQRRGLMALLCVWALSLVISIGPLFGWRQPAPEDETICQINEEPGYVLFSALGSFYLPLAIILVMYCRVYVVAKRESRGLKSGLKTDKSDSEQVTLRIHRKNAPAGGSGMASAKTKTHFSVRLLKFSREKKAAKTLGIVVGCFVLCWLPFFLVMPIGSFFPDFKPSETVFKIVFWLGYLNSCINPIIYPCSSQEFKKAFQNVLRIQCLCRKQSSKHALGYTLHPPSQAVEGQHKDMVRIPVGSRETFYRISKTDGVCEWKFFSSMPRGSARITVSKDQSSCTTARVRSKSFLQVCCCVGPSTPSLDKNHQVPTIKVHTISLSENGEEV
Procedure: Prior to experiments, cells were transduced with baculovirus strains designed for transient expression of α1A-AR or aldehyde oxidase (negative control). This was performed by incubating cells with virus (MOI 100–150) for 3 to 4 h, followed by exchange into fresh serum free growth medium supplemented with 4 mM sodium butyrate (NaBu). Cells were grown for another 14 to 18 h and then examined for agonist-evoked responses in transient Ca^2+ release, IP accumulation or pERK activation assays. The surface receptor expression density was determined by flow cytometry via immunofluorescence labeling of an N-terminal HA epitope tag on the receptor and radioligand binding in partially purified membranes.
Cells were resuspended in Hank’s balanced salt solution (Invitrogen) supplemented with 2 mM CaCl2, 10 mM HEPES pH 7.4, 2.5 mM probenecid, plus 1g/L each of glucose and bovine serum albumin (BSA), and seeded in poly-D-lysine coated 96-well black plates with transparent bottom (Costar) at a density of 50,000 cells/0.1 mL per well. Cells were then incubated for 1 h at 37°C with an additional 0.1 mL of buffer containing 4 μM fluo3-AM that was diluted from a stock solution containing 1 mM fluo3-AM dye in DMSO with 10% pluronic acid. After dye loading incubation, plates were washed twice with 100 μL of buffer and refilled with 100 μL of assay buffer. In experiments testing the effect of antagonists, 25 μL of buffer from wells of washed cells were replaced with 25 μL of vehicle or 4× antagonist solution. Pre-incubation of ligand with dye-loaded cells proceeded for 5–30 minutes immediately prior to measurements of agonist-evoked responses. Agonist-evoked Ca^2+ mobilization responses of cell populations were monitored at room temperature simultaneously in all wells of the assay plate using the plate-imaging fluorometric reader FLIPR (MDS Analytical Technologies, Sunnyvale, CA). […] The amplitudes of Ca^2+ transient responses are reported as ΔF/F0, or fold-change in Ca^2+ dye fluorescence relative to the baseline signal ΔF/F0 = (F-F0)/F0 +1 (where ΔF is maximal fluorescence intensity observed following agonist application, F0 = baseline fluorescence, or average intensity measured over the 10 s interval prior to agonist application). Image acquisition rates were varied from 1 Hz during the first 100 s of measurements to 0.5 Hz for the remaining time of the recording.
Graphs shown reflect either pooled or representative data (see figure legends). For concentration-response analysis, results from Ca^2+ mobilization experiments were plotted as ΔF/F0 vs. agonist concentration and fit to a sigmoidal concentration-response equation using the GraphPad Prism software package. In cases where biphasic concentration-response curves were observed data were fit to a two-site concentration-response model: F(X)=R0+(Rmax−R0)[Fr1/(1+10^X-logEC50,1)+(1−Fr1)/(1+10^X-logEC50,2)] (1) , where X is the logarithm of the agonist concentration, R0 and Rmax are respectively the response minimum and maximum; Fr1 is the response fraction attributable to receptor characterized by half effective concentration of the first response phase (EC50,1), with the reminder response attributable to the second half effective concentration (EC50,2). For radioligand binding experiments, B max values were calculated from maximum binding using the equation B max = (SB × ([…] + [L])/[L]), where SB is the specific binding expressed as fmol per mg of membrane protein, and [L] is the ligand concentration.

α1A-AR [2] = molecular target: T1, α1A-AR; experiment: LC-MS detection of IP1, IP2 and IP3 in α1A-AR transduced HEK-293/EBNA cells; assay type: cell-based; design: expressed in transfected cells; host or cells: HEK-293/EBNA (baculovirus transduction, NaBu induction); conditions: Iso up to 10 mM
Procedure: Virally transduced HEK-293/EBNA cells were resuspended in growth medium and seeded in poly-D-lysine coated 96-well black plates at a density of 100,000 cells/0.1 mL per well, Cells were allowed to attach for 2 hours at 37°C in a humidified atmosphere of 95% air and 5% CO2. After that, the medium was replaced with agonist solution in assay buffer (20 mM HEPES, 10 mM glucose, 1.8 mM CaCl2, 0.5 mM MgSO4, in HBSS 1X buffer, 50 mM LiCl) and cells were incubated at 37°C for 30 min. Stimulation was stopped by exchange of assay buffer with lysis buffer (100 μL 0.1N HCl/MeOH), and lysis proceeded for 30 min at 4°C. Cellular levels of inositol phosphates were determined using a Thermo LC-MS detection system following a published protocol. Chromatography was performed employing a BioBasic column AX (50 × 2.1 mm, Thermo). The mobile phase consisted of solvent A: 10 mM ammonium acetate, pH 6 in 30/70 acetonitrile/water, and solvent B: 1 mM ammonium acetate, pH 11 in 30/70 acetonitrile/water. A gradient solvent system was used starting with 0% solvent B, and analytes were eluted by increasing solvent B to 100% over 3 min. Each data point represents the average of triplicate determinations and each experiment was performed at least three times independently.

Structure (SMILES): CC(C)NCC(O)c1ccc(O)c(O)c1 (stereo not drawn) [Iso, isoproterenol]
- maximal response amplitude ΔF/F0 in presence of ICI 118,551 (α1A-AR [1]): 1.3
- magnitude ΔF/F0 in presence of RS100329 (α1A-AR [1]; 10 nM RS100329 pretreatment): 1.2
- ΔF/F0, β2-AR-dependent phase (α1A-AR [1]; pertussis toxin 100 ng/mL, 18 h): 1.5
- ΔF/F0, β2-AR-dependent phase (α1A-AR [1]; vehicle (no PTX), Fig. 4B): 1.3
- diminution of low potency phase of response in absence of extracellular Ca2+ (α1A-AR [1]; α1A-AR transduced cells): approximately 50%
- cellular levels of inositol phosphates IP1, IP2 and IP3 (α1A-AR [2]): no significant changes
